{"source": "paper PMC7985297", "about": "(Communications Biology, 2021)", "key": {"[1]": {"target": "T1, recombinant human Pin1 protein (Homo sapiens, UniProt Q13526)", "T1 construct": "purchased Abcam ab51230", "assay": "Pin1 inhibition assay (fluorometric isomerase activity)", "type": "biochemical", "conditions": "compounds 0–50 µM, 500 ng Pin1, Supplementary Fig. 2", "protocol": "The effect of inhibitors on Pin1 isomerase activity was evaluated using a fluorometric Pin1 Assay Kit (AnaSpec, Fremont, California), according to the manufacturer’s protocol. […] Fluorescence intensity was measured with excitation wavelength at 490 nm and emission wavelength at 520 nm on an Infinite M1000 plate reader (Tecan, Männedorf, Switzerland) at 37 °C. Measurements were recorded every 5 min for up to 1 h.\nFluorescent polarization-based assay\nthe isomerase activity of Pin1. Each reaction contains 500 ng of\nrecombinant human Pin1 protein incubated with an inhibitor and a\nfluorogenic substrate at 37°C. The uncatalyzed reaction represents\nthe intrinsic cis/trans isomerization of the substrate without Pin1\nseparate experiments with the correlation performed in duplicate\nwells. RFU, relative fluorescent units.\n(1 picture or pasted object on this page, not shown here)"}, "[2]": {"test_system": "Pin1 and cell cycle proteins in LN95 cells", "assay": "Western blot of Pin1 and cell cycle proteins in LN95 cells", "conditions": "for CyclinA2 protein level (Fig. 6a) / CyclinB1 protein level (Fig. 6a) / CyclinD1 protein level (Fig. 6a) / Pin1 protein level (Fig. 6a) / p21 protein level (Fig. 6a) / p27 protein level (Fig. 6a): relative to 0 μM = 1, replicate experiments by date", "experimental": "Data shown are the means ± s.e.m. from 3–4 independent experiments. Statistical significance was determined by ANOVA using the Dunnett’s multiple comparisons test. *P < 0.05, **P < 0.01, ***P < 0.001.\nFor western blot analyses, membranes were blocked with 5% non-fat milk in phosphate-buffered saline containing 0.1% Tween-20 (PBS-T) and then incubated overnight at 4 °C with primary antibody (1:200–5000) in PBS-T containing 5% non-fat milk or 2% BSA. After incubation with the primary antibody, the membrane was washed three times with TBS-T, incubated with a horseradish peroxidase-conjugated antibody secondary antibody (1:5000–10,000) for 1–2 h at room temperature, and washed three times with PBS-T and two more times with PBS before chemiluminescence was detected with ECL Prime Reagent (GE Healthcare Life Science, Mississauga, ON). Western blot images were captured using the ChemiDoc MP Imaging System (Bio-Rad Laboratories, Hercules, CA) and quantified using ImageJ software."}, "full-length AR": {"target": "T2, full-length AR (Homo sapiens, UniProt P10275, T878A)", "T2 construct": "Transcriptional activity of full-length AR was assessed in LNCaP cells; endogenous in cells; host or cells: LNCaP", "T2 sequence (P10275 1-920 T878A)": "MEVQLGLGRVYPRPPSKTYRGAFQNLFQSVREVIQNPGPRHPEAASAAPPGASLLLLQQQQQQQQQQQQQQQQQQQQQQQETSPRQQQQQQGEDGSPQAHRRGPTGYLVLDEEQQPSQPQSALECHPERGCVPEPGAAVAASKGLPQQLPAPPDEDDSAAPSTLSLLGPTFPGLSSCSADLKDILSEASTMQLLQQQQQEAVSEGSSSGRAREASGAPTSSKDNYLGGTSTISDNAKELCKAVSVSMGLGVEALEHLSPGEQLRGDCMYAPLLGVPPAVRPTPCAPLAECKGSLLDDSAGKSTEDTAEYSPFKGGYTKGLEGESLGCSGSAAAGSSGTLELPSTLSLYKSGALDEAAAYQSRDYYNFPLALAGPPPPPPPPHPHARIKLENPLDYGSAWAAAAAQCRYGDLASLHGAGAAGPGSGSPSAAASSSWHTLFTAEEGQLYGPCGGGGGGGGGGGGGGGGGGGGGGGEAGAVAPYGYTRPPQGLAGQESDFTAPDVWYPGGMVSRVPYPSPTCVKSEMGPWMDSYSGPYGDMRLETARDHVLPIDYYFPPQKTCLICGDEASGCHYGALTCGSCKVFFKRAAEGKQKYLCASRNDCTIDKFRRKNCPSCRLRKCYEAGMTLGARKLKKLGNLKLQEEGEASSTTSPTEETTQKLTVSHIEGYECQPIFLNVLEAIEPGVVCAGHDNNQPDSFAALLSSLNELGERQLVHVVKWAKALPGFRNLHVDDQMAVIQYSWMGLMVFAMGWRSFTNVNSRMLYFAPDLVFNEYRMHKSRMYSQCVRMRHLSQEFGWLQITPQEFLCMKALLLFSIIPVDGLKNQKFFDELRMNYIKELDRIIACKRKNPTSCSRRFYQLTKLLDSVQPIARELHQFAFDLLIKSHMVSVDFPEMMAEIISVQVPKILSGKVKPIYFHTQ", "assay": "PSA(6.1 kb)-luciferase AR-driven reporter assay in LNCaP cells", "type": "cell-based", "conditions": "for PSA(6.1 kb)-luciferase activity normalized to fold-induction by R1881 (=100): without or with ATRA 5uM; for fractional response (Fig. 5h): monotherapy or with 5 µM ATRA"}, "LN95-D3 xenografts": {"test_system": "LN95-D3 xenografts", "assay": "Growth of LN95-D3 CRPC xenografts in castrated male NSG mice", "type": "in vivo", "conditions": "castrated mice, ATRA 5 mg 21-day release pellet, EPI-7170 30 mg/kg daily oral, relative to vehicle/placebo-control"}, "[3]": {"test_system": "Pin1, Cyclin D1, Skp2 and AR in LN95-D3 tumors", "assay": "Western blot of harvested LN95-D3 xenograft tumors (Pin1, Cyclin D1, Skp2, AR)", "type": "in vivo, mice", "conditions": "LN95-D3 tumors at end of study", "protocol": "Scale bars represent 5 mm (f) western blot analysis showing the expression of Pin1, Cyclin D1, Skp2, and AR from representative tumors. Quantification of the data is shown for g Pin1 and h Skp2, where the error bars represent the mean ± s.e.m.\nAll experiments involving animals conform to the relevant regulatory and ethical standards and were approved by the University of British Columbia Animal Care Committee (A18-0077). Metacam (1 mg/kg, 0.05 mL/10 g of body weight) was administered subcutaneously prior to any surgery. Animals were anesthetized with isoflurane and euthanized by CO2. Six–eight-week-old male (NOD-scid IL2Rgamma^null) mice were maintained in the Animal Care Facility at the British Columbia Cancer Research Centre. Mice were castrated 2 weeks before they were subcutaneously inoculated in the right flank with two million LN95-D3 cells in a 1:1 volume of matrigel (Corning Discovery Labware, Corning, NY). […] Tumors were excised 1 day after the last dose and prepared for western blot analysis and immunohistochemistry."}, "[4]": {"test_system": "Ki-67, PSA and AR in LN95-D3 xenografts", "assay": "Immunohistochemistry of LN95-D3 xenografts (Ki-67, PSA, AR)", "type": "in vivo, mice", "from_the_text": "Fig. 8 Immunohistochemistry of LN95-D3 xenografts. a Representative images showing the histomorphology and expression of Ki-67, PSA, and AR from harvested tumors. Scale bars represent 100 µm. Statistical analysis for b the percentage of Ki-67-positive tumor cells and for the expression of c PSA and d AR. Error bars represent the mean ± s.d.\nSections were cut from formalin-fixed, paraffin-embedded tumor tissue at a thickness of 5 µm, deparaffinized in xylene, and then rehydrated in alcohols and distilled water. Endogenous peroxidase was blocked by incubating with a 3% hydrogen peroxide solution for 5 min. […] PSA was detected using a monoclonal mouse anti-human PSA antibody concentrate (ER-PR8; Dako). A negative control without the primary antibody was included for each sample on the same slide. Antigen was detected with 3,3-diaminobenzidine (DAB) and hematoxylin was used for counterstaining. Images were captured on an Axio Imager M2 microscope (Zeiss) at ×200 magnification. The percentage of Ki-67-positive cells was determined with ImageJ using the Cell Counter plugin. At least 1000 cells were scored from three images of representative tumors for each treatment group. The intensity of DAB staining for PSA was quantified by ImageJ using color deconvolution and measuring the mean gray value for the DAB image, where optical density = log(max intensity/mean intensity), and a max intensity of 255 for an 8-bit image."}, "[5]": {"test_system": "androgen-regulated genes (KLK3/PSA, TMPRSS2, NKX3.1, FKBP5)", "assay": "Quantitative real-time PCR of androgen-regulated genes in LNCaP cells", "type": "cell-based, human", "conditions": "enzalutamide 5 μM, juglone 20 μM, R1881 1 nM, 48 hours"}, "LN95-D3 cells": {"test_system": "LN95-D3 cells", "assay": "Cell cycle analysis by flow cytometry, LN95-D3 subline", "type": "cell-based, human", "conditions": "LN95-D3, absence of androgen, 48 h"}}, "note": "Values joined by “and” are separate entries in the source; they are usually repeats but may differ in a detail not shown here. Equal entries are not always repeated."}
{"smiles": "CC1=C(/C=C/C(C)=C/C=C/C(C)=C\\C(=O)O)C(C)(C)CCC1", "note": "[13cisRA, 13-cis-retinoic acid]", "values": [{"measurement": "effect on isomerase activity of Pin1", "setting": "[1]", "value": "did not inhibit the isomerase activity of Pin1"}, {"measurement": "CyclinA2 protein level (Fig. 6a)", "setting": "[2]; 1 μM", "value": "1.4 and 0.72 and 1.11"}, {"measurement": "CyclinB1 protein level (Fig. 6a)", "setting": "[2]; 1 μM", "value": "1.01 and 0.65 and 1.18"}, {"measurement": "CyclinD1 protein level (Fig. 6a)", "setting": "[2]; 1 μM", "value": "0.66 and 0.89 and 1.34 and 0.47"}, {"measurement": "Pin1 protein level (Fig. 6a)", "setting": "[2]; 1 μM", "value": "1.03 and 1.11 and 1.06 and 0.77"}, {"measurement": "p21 protein level (Fig. 6a)", "setting": "[2]; 1 μM", "value": "1.11 and 0.58 and 0.74"}, {"measurement": "p27 protein level (Fig. 6a)", "setting": "[2]; 1 μM", "value": "1.11 and 0.36 and 0.65"}, {"measurement": "CyclinA2 protein level (Fig. 6a)", "setting": "[2]; 5 μM", "value": "1.68 and 0.83 and 0.8"}, {"measurement": "CyclinB1 protein level (Fig. 6a)", "setting": "[2]; 5 μM", "value": "1.11 and 0.76 and 0.82"}, {"measurement": "CyclinD1 protein level (Fig. 6a)", "setting": "[2]; 5 μM", "value": "0.7 and 1.29 and 1.73 and 0.85"}, {"measurement": "Pin1 protein level (Fig. 6a)", "setting": "[2]; 5 μM", "value": "0.96 and 1.44 (2×) and 0.77"}, {"measurement": "p21 protein level (Fig. 6a)", "setting": "[2]; 5 μM", "value": "0.92 and 0.24 and 0.67"}, {"measurement": "p27 protein level (Fig. 6a)", "setting": "[2]; 5 μM", "value": "0.91 and 0.32 and 0.6"}, {"measurement": "CyclinA2 protein level (Fig. 6a)", "setting": "[2]; 10 μM", "value": "1.29 and 0.49 and 1.45"}, {"measurement": "CyclinB1 protein level (Fig. 6a)", "setting": "[2]; 10 μM", "value": "1.06 and 0.77 and 1.15"}, {"measurement": "CyclinD1 protein level (Fig. 6a)", "setting": "[2]; 10 μM", "value": "0.54 and 1.01 and 0.27 and 0.84"}, {"measurement": "Pin1 protein level (Fig. 6a)", "setting": "[2]; 10 μM", "value": "0.95 and 0.71 and 1.33 and 1.23"}, {"measurement": "p21 protein level (Fig. 6a)", "setting": "[2]; 10 μM", "value": "0.89 and 0.39 and 1.12"}, {"measurement": "p27 protein level (Fig. 6a)", "setting": "[2]; 10 μM", "value": "1.06 and 0.44 and 1.1"}, {"measurement": "effect on cellular Pin1 protein levels", "setting": "[2]; LN95, 0–10 µM", "value": "did not impact the cellular levels of Pin1"}]}
{"smiles": "CC(C)(c1ccc(OC[C@H](O)CNS(C)(=O)=O)cc1)c1cc(Cl)c(OC[C@H](O)CCl)c(Cl)c1", "note": "[EPI-7170]", "values": [{"measurement": "inhibition of reporter activity at highest concentration", "setting": "full-length AR; 4 µM of EPI-7170", "value": "~ 98%"}, {"measurement": "mean combination index (CI) with ATRA, PSA(6.1 kb)-luciferase", "setting": "full-length AR; ATRA 5 μM, Bliss independence model, highest concentrations excluded", "value": 0.91}, {"measurement": "PSA(6.1 kb)-luciferase activity normalized to fold-induction by R1881 (=100)", "setting": "full-length AR; EPI-7170 0.2 μM", "value": "77.0788 and 79.4022 and 93.7923 and 73.47"}, {"measurement": "PSA(6.1 kb)-luciferase activity normalized to fold-induction by R1881 (=100)", "setting": "full-length AR; EPI-7170 0.5 μM", "value": "56.3224 and 79.2412 and 61.2392 and 64.29"}, {"measurement": "fractional response (Fig. 5h)", "setting": "full-length AR; EPI-7170 2 μM", "value": "0.8636 and 0.6689 and 0.7916 and 0.8858"}, {"measurement": "fractional response (Fig. 5h)", "setting": "full-length AR; EPI-7170 4 μM", "value": "0.9949 and 0.9737 and 0.993 and 0.9732"}, {"measurement": "IC50", "setting": "full-length AR; LNCaP, androgen-induced (R1881), 24 h, without ATRA, read-out: IC50 for PSA(6.1 kb) luciferase, monotherapy", "value": "0.74 ± 1.12", "unit": "µM"}, {"measurement": "tumor growth after 21 days of treatment", "setting": "LN95-D3 xenografts", "value": "significantly reduced"}, {"measurement": "tumor levels of Skp2", "setting": "[3]", "value": "reduced"}, {"measurement": "effect on number of Ki-67-positive tumor cells", "setting": "[4]; LN95-D3 xenografts", "value": "decreased the number of Ki-67-positive tumor cells in xenografts"}, {"measurement": "levels of AR protein in xenografts (IHC)", "setting": "[4]; LN95-D3 xenografts", "value": "similar"}, {"measurement": "expression of AR, DAB staining (Fig. 8d)", "setting": "[4]; LN95-D3 xenografts, ATRA 5 mg pellet, EPI-7170 30 mg/kg/d, listed as EPI placebo", "value": "0.086 and 0.114 and 0.139 and 0.128 and 0.109 and 0.1 and 0.132 and 0.137"}, {"measurement": "percentage of Ki-67-positive tumor cells (Fig. 8b)", "setting": "[4]; LN95-D3 xenografts, ATRA 5 mg pellet, EPI-7170 30 mg/kg/d, one value per tumor, listed as EPI placebo", "value": "19.68% and 14.7% and 15.02%"}, {"measurement": "effect on PSA expression in xenografts (IHC)", "setting": "[4]; compared to the control", "value": "decreased"}]}
{"smiles": "CNC(=O)c1ccc(N2C(=S)N(c3ccc(C#N)c(C(F)(F)F)c3)C(=O)C2(C)C)cc1F", "note": "[enzalutamide]", "values": [{"measurement": "effect on androgen-induced FKBP5 transcript", "setting": "[5]", "value": "efficiently blocked"}, {"measurement": "effect on cell cycle distribution", "setting": "LN95-D3 cells", "value": "had no effect on the cell cycle distribution"}]}
